Assay results published in patent US12398141B2 (SHANGHAI SYNERGY PHARMACEUTICAL SCIENCES CO., LTD, priority 2019, dated 2025).

What was measured:
Sprague-Dawley (SD) mice = assay: Concanavalin-induced paw swelling in mice; assay type: in vivo; settings: 10 mg/kg intragastric; for Paw swelling rate_1 h (%): 1 h; for Paw swelling rate_2 h (%): 2 h; for Paw swelling rate_4 h (%): 4 h; for Paw swelling rate_6 h (%): 6 h
Protocol: The inhibiting effects of compounds H13, H14, H09, H11 and compounds of Example 12 on paw swelling in […] were determined after intragastric administration by using Sprague-Dawley (SD) […] (ShanghaiSippr-BK laboratory animal Co. Ltd.), aged 6-7 weeks and weighing 160-180 g as test animals. The anti-inflammatory pharmacodynamics characteristic of the compounds of the invention was discussed.
A certain amount of compounds were taken and dissolved in 4% Tween 80/0.5% hydroxy propyl methyl cellulose solution.
Mice were given compounds H01, H07, H11, H12, H14, H15, H22, H25, H29, H30, H33, H39, and H44 and the positive drug indomethacin (Diamond Reagent Co., Ltd., China) by intragastric administration at the dosages shown in the table below and 0.1 ml 0.03% (W/V) concanavalin was injected subcutaneously into the plantar 0.5 h later. A paw volume was measured with a paw swelling meter before modeling and 1 h, 2 h, 4 h and 6 h after modeling. According to the formula: paw swelling rate=(paw volume after administration−basic paw volume)/basic paw volume×100, the inhibiting effect of the compounds on paw volume was calculated. The basic paw volume was a paw volume before administration.

[1] = Pharmacokinetic test after intragastric administration; assay type: in vivo; settings: Sprague-Dawley, mouse, plasma, po, SD mice, 5 mg/kg intragastric; for AUC(0-t): read-out: Area under the curve (AUC0-24, ng/ml · h); for Cmax: read-out: Plasma concentration (Cmax, ng/ml); for half-life: read-out: half life (T1/2, h) (converted)
Protocol: Drug concentrations of compounds H01, H07, H11, H12, H14, H15, H22, H25, H29, H30, H33, H39 and H44 intragastrically administrated in plasma by using LC/MS/MS method at various time points were determined by using Sprague-Dawley (SD) […], aged 7-8 weeks and weighing […] as test animals. Pharmacokinetic behavior of the compounds of the invention in […] was studied and its pharmacokinetic characteristics were evaluated.
A certain amount of compounds was taken and dissolved in 50% PEG400/water to prepare a uniform solution.
Mice were administered intragastrically with the above compounds with a dosage of 5 mg/kg. Blood (0.2 ml) was taken from orbits before administration and 0.083 h, 0.25 h, 0.5 h, 1.0 h, 2.0 h, 4.0 h, 6.0 h, 8.0 h, 12.0 h and 24.0 h after administration. The blood was placed in anticoagulant tubes containing dipotassium ethylene glycol diethyl ether diamine tetraacetic acid, centrifugated at 6000 rpm at 4° C. for 10 minutes to separate plasma and saved at −80° C.
50 μL plasma at various time was taken and 150 μL acetonitrile solution containing internal standard tolbutamide (Sigma, USA) was added, mixed and stirred for 5 minutes. After centrifugation for 5 minutes at 12,000 rpm, 100 μL supernatant was taken, mixed with 200 μL water, following by sample injection and analysis.
Liquid chromatogram system was LC-20AD UFLC High Performance Liquid Chromatography system. Mass spectrum system was AB Sciex API4000 triple quadrupole mass spectrometer equipped with Electron Spray Ionization (ESI) (Applied Biosystems, Canada). A software for controlling liquid chromatography-mass spectrometry and quantitative analysis was Anna Rust 1.6 (Applied Biosystems, Canada). Pharmacokinetic parameters were analyzed by WinNonlin (version 5.2, Pharsight, Mountain View, […]) non-compartment model.
The test compound was dissolved in dimethyl sulfoxide to prepare a stock solution with a concentration of 1 mg/mL. The solution was diluted with 50% acetonitrile to obtain a series of standard working solutions with concentrations of 10 μg/mL, 3 μg/mL, 1 μg/mL, 0.3 μg/mL, 0.1 μg/mL, 0.03 μg/mL and 0.01 μg/mL, and a series of standard quality control solutions with concentrations of 8 μg/mL, 0.5 μg/mL, 0.03 μg/mL. 5 μL standard solution was mixed with 45 μL blank plasma substrate uniformly to obtain standard solutions of each concentration of a standard curve (1000 ng/mL, 500 ng/mL, 200 ng/mL, 100 ng/mL, 10 ng/mL, 5 ng/mL, 2 and 1 ng/mL) and quality control solutions (plasma samples: 800 ng/mL, 50 and 3 ng/mL).
Internal standard tolbutamide solid powder was dissolved in dimethyl sulfoxide to prepare a 1 mg/mL stock solution. The stock solution was diluted with 100% acetonitrile to obtain 200 ng/mL solution as a protein precipitation solution.

TF-1 cell = TF-1 cell proliferation test; assay type: cell-based; settings: Homo sapiens, 72 h
Blast T cell = assay: Cell proliferation test of IL-2 stimulated Blast T cell; assay type: cell-based; settings: Homo sapiens; IL-2 stimulated Blast T cell proliferation, 72 hours

COc1nsc(NC(=O)N[C@H]2C[C@@H](N(C)c3c(C#N)cnc4[nH]ccc34)C2)n1 [Compound H29, (cis)-1-(3-((5-cyano-1H-pyrrolo[2,3-b]pyridin-4-yl)(methyl)amino)cyclobutyl)-3-(3-methoxy-1,2,4-thiadiazole-5-yl)urea]
Paw swelling rate_1 h (%) (Sprague-Dawley (SD) mice): 23.70 ± 1.60%
Paw swelling rate_2 h (%) (Sprague-Dawley (SD) mice): 23.20 ± 2.60%
Paw swelling rate_4 h (%) (Sprague-Dawley (SD) mice): 32.20 ± 3.50%
Paw swelling rate_6 h (%) (Sprague-Dawley (SD) mice): 29.20 ± 3.50%
AUC(0-t) [1]: 1530 ± 176 ng·h/mL
Cmax [1]: 522 ± 23 ng/mL
half-life [1]: 4.43 ± 0.32 h
IC50 (TF-1 cell): 0.87 µM
IC50 (Blast T cell): 0.016 µM

COc1nsc(NC(=O)N2C[C@H]3C[C@H](N(C)c4c(C#N)cnc5[nH]ccc45)C[C@H]3C2)n1 [Compound H07, (3aR,5s,6aS)-4-({2-[(3-methoxy-1,2,4-thiadiazole-5-yl)carbamoyl]-hexahydrocyclopenta[c]pyrrole-5-yl}-methyl-amino)-1H-pyrrolo[2,3-b]pyridin-5-carbonitrile]
Paw swelling rate_1 h (%) (Sprague-Dawley (SD) mice): 25.20 ± 2.10%
Paw swelling rate_2 h (%) (Sprague-Dawley (SD) mice): 32.10 ± 1.70%
Paw swelling rate_4 h (%) (Sprague-Dawley (SD) mice): 22.30 ± 4.20%
Paw swelling rate_6 h (%) (Sprague-Dawley (SD) mice): 21.30 ± 4.20%
AUC(0-t) [1]: 1920 ± 20 ng·h/mL
Cmax [1]: 578 ± 43 ng/mL
half-life [1]: 4.62 ± 0.87 h
IC50 (TF-1 cell): 0.073 µM
IC50 (Blast T cell): 0.024 µM

C[C@@H]1CCN(C(=O)CC#N)C[C@@H]1N(C)c1c(C#N)cnc2[nH]ccc12 [Compound H11, 4-{[(3R,4R)-1-(2-cyanoacetyl)-4-methylpiperidin-3-yl]-methyl-amino}-1H-pyrrolo[2,3-b]pyridin-5-carbonitrile]
Paw swelling rate_1 h (%) (Sprague-Dawley (SD) mice): 23.50 ± 2.40%
Paw swelling rate_2 h (%) (Sprague-Dawley (SD) mice): 25.80 ± 3.30%
Paw swelling rate_4 h (%) (Sprague-Dawley (SD) mice): 31.00 ± 2.10%
Paw swelling rate_6 h (%) (Sprague-Dawley (SD) mice): 32.00 ± 2.10%
AUC(0-t) [1]: 2620 ± 10 ng·h/mL
Cmax [1]: 428 ± 32 ng/mL
half-life [1]: 8.53 ± 0.67 h
IC50 (TF-1 cell): 0.68 µM
IC50 (Blast T cell): 0.013 µM

CN(c1c(C#N)cnc2[nH]ccc12)[C@H]1C[C@@H]2CN(C(=O)Nc3ccc(Cl)c(C(F)(F)F)c3)C[C@@H]2C1 [Compound H25, (3aR,5s,6aS)-N-(4-chloro-3-(trifluoromethyl)phenyl)-5-((5-cyano-1H-pyrrolo[2,3-b]pyridin-4-yl)(methyl)amino)hexahydrocyclopentadiene[c]pyrrole-2(1H)-carboxamide]
Paw swelling rate_1 h (%) (Sprague-Dawley (SD) mice): 32.10 ± 5.20%
Paw swelling rate_2 h (%) (Sprague-Dawley (SD) mice): 26.90 ± 5.00%
Paw swelling rate_4 h (%) (Sprague-Dawley (SD) mice): 24.50 ± 4.00%
Paw swelling rate_6 h (%) (Sprague-Dawley (SD) mice): 24.50 ± 4.00%
AUC(0-t) [1]: 1270 ± 231 ng·h/mL
Cmax [1]: 501 ± 17 ng/mL
half-life [1]: 4.67 ± 0.23 h
IC50 (TF-1 cell): 0.73 µM
IC50 (Blast T cell): 0.02 µM

CC(C)c1nsc(NC(=O)N2C[C@H]3C[C@H](N(C)c4c(C#N)cnc5[nH]ccc45)C[C@H]3C2)n1 [Compound H30, (3aR,5s,6aS)-4-({2-[(3-isopropyl-1,2,4-thiadiazole-5-yl)carbamoyl]-hexahydrocyclopenta[c]pyrrole-5-yl}-methyl-amino)-1H-pyrrolo[2,3-b]pyridin-5-carbonitrile]
Paw swelling rate_1 h (%) (Sprague-Dawley (SD) mice): 24.40 ± 2.40%
Paw swelling rate_2 h (%) (Sprague-Dawley (SD) mice): 25.20 ± 3.40%
Paw swelling rate_4 h (%) (Sprague-Dawley (SD) mice): 26.00 ± 2.30%
Paw swelling rate_6 h (%) (Sprague-Dawley (SD) mice): 24.50 ± 2.30%
AUC(0-t) [1]: 923 ± 263 ng·h/mL
Cmax [1]: 433 ± 16 ng/mL
half-life [1]: 2.47 ± 0.46 h
IC50 (TF-1 cell): 1.23 µM
IC50 (Blast T cell): 0.018 µM

CN(c1c(C#N)cnc2[nH]ccc12)[C@H]1C[C@@H]2CN(C(=O)Nc3nc(OCC(C)(C)N)ns3)C[C@@H]2C1 [Compound H44, (3aR,5s,6aS)-5-((5-cyano-1H-pyrrolo[2,3-b]pyridin-4-yl)(methyl)amino)-N-(3-(2-amino-2-methyl-propoxy)-1,2,4-thiadiazole-5-yl)hexahydrocyclopentadiene[c]pyrrole-2(1H)-carboxamide]
Paw swelling rate_1 h (%) (Sprague-Dawley (SD) mice): 23.80 ± 1.60%
Paw swelling rate_2 h (%) (Sprague-Dawley (SD) mice): 24.80 ± 2.50%
Paw swelling rate_4 h (%) (Sprague-Dawley (SD) mice): 24.20 ± 2.90%
Paw swelling rate_6 h (%) (Sprague-Dawley (SD) mice): 23.50 ± 2.90%
AUC(0-t) [1]: 1680 ± 120 ng·h/mL
Cmax [1]: 619 ± 39 ng/mL
half-life [1]: 4.17 ± 0.45 h
IC50 (TF-1 cell): 0.73 µM
IC50 (Blast T cell): 0.014 µM

CCCS(=O)(=O)N[C@H]1C[C@@H](N(C)c2c(C#N)cnc3[nH]ccc23)C1 [Compound H14, (cis)-4-{[3-(propanesulfonamido)-cyclobutyl-1-yl]-methyl-amino}-1H-pyrrolo[2,3-b]pyridin-5-carbonitrile]
Paw swelling rate_1 h (%) (Sprague-Dawley (SD) mice): 32.10 ± 5.20%
Paw swelling rate_2 h (%) (Sprague-Dawley (SD) mice): 25.90 ± 5.00%
Paw swelling rate_4 h (%) (Sprague-Dawley (SD) mice): 25.50 ± 4.00%
Paw swelling rate_6 h (%) (Sprague-Dawley (SD) mice): 25.10 ± 4.20%
AUC(0-t) [1]: 915 ± 240 ng·h/mL
Cmax [1]: 438 ± 24 ng/mL
half-life [1]: 2.11 ± 0.16 h
IC50 (TF-1 cell): 0.63 µM
IC50 (Blast T cell): 0.017 µM

CN(c1c(C#N)cnc2[nH]ccc12)[C@H]1C[C@@H](NS(=O)(=O)CCC(F)(F)F)C1 [Compound H15, (cis)-4-{[3-(3,3,3-trifluoropropanesulfonamide)-cyclobutyl-1-yl]-methyl-amino}-1H-pyrrolo[2,3-b]pyridin-5-carbonitrile]
Paw swelling rate_1 h (%) (Sprague-Dawley (SD) mice): 24.50 ± 2.50%
Paw swelling rate_2 h (%) (Sprague-Dawley (SD) mice): 25.90 ± 3.40%
Paw swelling rate_4 h (%) (Sprague-Dawley (SD) mice): 32.00 ± 2.30%
Paw swelling rate_6 h (%) (Sprague-Dawley (SD) mice): 31.00 ± 2.30%
AUC(0-t) [1]: 1520 ± 241 ng·h/mL
Cmax [1]: 518 ± 24 ng/mL
half-life [1]: 5.11 ± 0.16 h
IC50 (TF-1 cell): 0.073 µM
IC50 (Blast T cell): 0.014 µM

CN(C)c1nsc(NC(=O)N2C[C@H]3C[C@H](N(C)c4c(C#N)cnc5[nH]ccc45)C[C@H]3C2)n1 [Compound H33, (3aR,5s,6aS)-4-({2-[(3-dimethylamino-1,2,4-thiadiazole-5-yl)carbamoyl]-hexahydrocyclopenta[c]pyrrole-5-yl}-methyl-amino)-1H-pyrrolo[2,3-b]pyridin-5-carbonitrile]
Paw swelling rate_1 h (%) (Sprague-Dawley (SD) mice): 27.80 ± 2.00%
Paw swelling rate_2 h (%) (Sprague-Dawley (SD) mice): 29.20 ± 3.10%
Paw swelling rate_4 h (%) (Sprague-Dawley (SD) mice): 30.10 ± 2.90%
Paw swelling rate_6 h (%) (Sprague-Dawley (SD) mice): 30.10 ± 2.90%
AUC(0-t) [1]: 1820 ± 173 ng·h/mL
Cmax [1]: 440 ± 89 ng/mL
half-life [1]: 8.64 ± 0.23 h
IC50 (TF-1 cell): 1.1 µM
IC50 (Blast T cell): 0.023 µM

N#Cc1cnc2[nH]ccc2c1N[C@H]1C[C@@H](NS(=O)(=O)CCC(F)(F)F)C1 [Compound H12, (cis)-4-{[3-(3,3,3-trifluoropropanesulfonamido)-cyclobutyl-1-yl]-amino}-1H-pyrrolo[2,3-b]pyridin-5-carbonitrile]
Paw swelling rate_1 h (%) (Sprague-Dawley (SD) mice): 28.90 ± 2.00%
Paw swelling rate_2 h (%) (Sprague-Dawley (SD) mice): 23.10 ± 3.00%
Paw swelling rate_4 h (%) (Sprague-Dawley (SD) mice): 24.00 ± 2.90%
Paw swelling rate_6 h (%) (Sprague-Dawley (SD) mice): 24.00 ± 3.00%
AUC(0-t) [1]: 1020 ± 266 ng·h/mL
Cmax [1]: 644 ± 82 ng/mL
half-life [1]: 4.23 ± 0.47 h
IC50 (TF-1 cell): 1.67 µM
IC50 (Blast T cell): 0.011 µM

CN(c1c(C#N)cnc2[nH]ccc12)[C@H]1C[C@@H]2CN(C(=O)NCC(F)(F)F)C[C@@H]2C1 [Compound H22, (3aR,5s,6aS)-4-({2-[(2,2,2-trifluoroethyl)-carbamoyl]-hexahydrocyclopenta[c]pyrrole-5-yl}-methyl-amino)-1H-pyrrolo[2,3-b]pyridin-5-carbonitrile]
Paw swelling rate_1 h (%) (Sprague-Dawley (SD) mice): 29.80 ± 2.00%
Paw swelling rate_2 h (%) (Sprague-Dawley (SD) mice): 29.10 ± 3.00%
Paw swelling rate_4 h (%) (Sprague-Dawley (SD) mice): 31.00 ± 2.90%
Paw swelling rate_6 h (%) (Sprague-Dawley (SD) mice): 31.00 ± 2.90%
AUC(0-t) [1]: 757 ± 169 ng·h/mL
Cmax [1]: 213 ± 22 ng/mL
half-life [1]: 3.11 ± 0.64 h
IC50 (TF-1 cell): 1.76 µM
IC50 (Blast T cell): 0.019 µM
